Tests used:
Italian ryegrass = assay: Test A preemergence; assay type: in vivo, Lolium multiflorum; conditions: 0 to 100 scale where 0 is no effect and 100 is complete control
Summary of the method: (§1)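 Pre- and postemergence greenhouse screen. Soil: loam + sand. Spray carrier: solvent mixture, non-phytotoxic, with surfactant. Post timing at 1–2 leaves, height 2–10 cm. Readout: visual injury on a 0–100 scale roughly 10 days after application, untreated plants as reference.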

giant foxtail [1] = assay: Test A preemergence; assay type: in vivo, Setaria faberii; conditions: Setaria faberi, pre-emergence, 240 h, 0 to 100 scale where 0 is no effect and 100 is complete control
Summary of the method: as §1

galium = assay: Test C preemergence; assay type: in vivo, Galium aparine; conditions: Galium, pre-emergence
Summary of the method: (§2)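 Sown in loam/sand → sprayed pre-emergence; or grown to 1–4 leaves in peat mix → sprayed post-emergence. Same solvent/surfactant formulation both ways. Greenhouse 13–15 d. Score 0–100 visual.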

large (Lg) crabgrass = assay: Test C preemergence; assay type: in vivo, Digitaria sanguinalis; conditions: Digitaria sanguinalis, pre-emergence
Summary of the method: as §2

giant foxtail [2] = assay: Test C preemergence; assay type: in vivo, Setaria faberii; conditions: Setaria faberi, pre-emergence
Summary of the method: as §2

johnsongrass [3] = assay: Test C preemergence; assay type: in vivo, Sorghum halepense; conditions: Sorghum halepense, pre-emergence, preemergence, read-out: Johnsongrass plant response rating
Summary of the method: as §2

lambsquarters = assay: Test C preemergence; assay type: in vivo, Chenopodium album; conditions: Chenopodium album, pre-emergence, preemergence, read-out: Lambsquarters plant response rating
Summary of the method: as §2

yellow nutsedge [4] = assay: Test C preemergence; assay type: in vivo, Cyperus esculentus; conditions: Cyperus, pre-emergence, preemergence, read-out: Nutsedge, Yellow plant response rating
Summary of the method: as §2

giant foxtail [5] = assay: Test C postemergence; assay type: in vivo, Setaria faberii; conditions: Setaria faberi, post-emergence
Summary of the method: as §2

johnsongrass [6] = assay: Test C postemergence; assay type: in vivo, Sorghum halepense; conditions: Sorghum halepense, post-emergence
Summary of the method: as §2

yellow nutsedge [7] = assay: Test C postemergence; assay type: in vivo, Cyperus esculentus; conditions: Cyperus, post-emergence
Summary of the method: as §2

soybean = assay: Test C postemergence; assay type: in vivo, Glycine max; conditions: Glycine max, post-emergence
Summary of the method: as §2

waterhemp = assay: Test C postemergence; assay type: in vivo, Amaranthus rudis; conditions: Amaranthus tuberculatus, post-emergence
Summary of the method: as §2

chickweed = assay: Test C postemergence; assay type: in vivo, Stellaria media; conditions: Stellaria media, post-emergence
Summary of the method: as §2

[8] = 16 g ai/ha, scale 0 to 100 (0 no effect, 100 complete control)
[9] = 62 g ai/ha, scale 0 (no effect) to 100 (complete control)
[10] = 125 g ai/ha, scale 0 (no effect) to 100 (complete control)

## FC(F)(F)COc1cnn(-c2ccccc2Oc2ncc(Cl)cn2)c1 [Compound 138, 5-chloro-2-[2-[4-(2,2,2-trifluoroethoxy)-1H-pyrazol-1-yl]phenoxy]pyrimidine]
Italian ryegrass; 125 g ai/ha
  Plant response rating, Ryegrass, Italian: 0
Italian ryegrass; 500 g ai/ha
  Ryegrass, Italian plant response rating: 50
Giant foxtail [1]; 125 g ai/ha, read-out: Plant response rating, Foxtail, Giant
  pest or weed control at 125 g/ha: 90%
Giant foxtail [1]; 500 g ai/ha, read-out: Foxtail, Giant plant response rating
  pest or weed control at 500 g/ha: 100%
galium; 16 g ai/ha, preemergence, scale 0 to 100 (0 no effect, 100 complete control), read-out: Galium plant response rating
  pest or weed control at 16 g/ha: 90%
galium; 62 g ai/ha, preemergence, scale 0 (no effect) to 100 (complete control), read-out: Galium plant response rating
  pest or weed control at 62 g/ha: 90%
galium; 125 g ai/ha, preemergence, scale 0 (no effect) to 100 (complete control), read-out: Galium plant response rating
  pest or weed control at 125 g/ha: 100%
galium; Preemergence, 31 g ai/ha, scale 0 to 100, 0 no effect, 100 complete control, read-out: Plant response rating, Galium
  pest or weed control at 31 g/ha: 90%
Large (Lg) crabgrass; 16 g ai/ha, preemergence, scale 0 to 100 (0 no effect, 100 complete control), read-out: Crabgrass, Large plant response rating
  pest or weed control at 16 g/ha: 100%
Large (Lg) crabgrass; 62 g ai/ha, preemergence, scale 0 (no effect) to 100 (complete control), read-out: Crabgrass, Large plant response rating
  pest or weed control at 62 g/ha: 100%
Large (Lg) crabgrass; 125 g ai/ha, preemergence, scale 0 (no effect) to 100 (complete control), read-out: Crabgrass, Large plant response rating
  pest or weed control at 125 g/ha: 100%
Large (Lg) crabgrass; Preemergence, 31 g ai/ha, scale 0 to 100, 0 no effect, 100 complete control, read-out: Plant response rating, Crabgrass, Large
  pest or weed control at 31 g/ha: 90%
Giant foxtail [2]; 16 g ai/ha, preemergence, scale 0 to 100 (0 no effect, 100 complete control), read-out: Foxtail, Giant plant response rating
  pest or weed control at 16 g/ha: 30%
Giant foxtail [2]; 62 g ai/ha, preemergence, scale 0 (no effect) to 100 (complete control), read-out: Foxtail, Giant plant response rating
  pest or weed control at 62 g/ha: 100%
Giant foxtail [2]; 125 g ai/ha, preemergence, scale 0 (no effect) to 100 (complete control), read-out: Foxtail, Giant plant response rating
  pest or weed control at 125 g/ha: 100%
Giant foxtail [2]; Preemergence, 31 g ai/ha, scale 0 to 100, 0 no effect, 100 complete control, read-out: Plant response rating, Foxtail, Giant
  pest or weed control at 31 g/ha: 90%
Johnsongrass [3]; [8]
  pest or weed control at 16 g/ha: 0%
Johnsongrass [3]; [9]
  pest or weed control at 62 g/ha: 40%
Johnsongrass [3]; [10]
  pest or weed control at 125 g/ha: 65%
lambsquarters; [8]
  pest or weed control at 16 g/ha: 100%
lambsquarters; [9]
  pest or weed control at 62 g/ha: 100%
lambsquarters; [10]
  pest or weed control at 125 g/ha: 100%
Yellow nutsedge [4]; [8]
  pest or weed control at 16 g/ha: 5%
Yellow nutsedge [4]; [9]
  pest or weed control at 62 g/ha: 25%
Yellow nutsedge [4]; [10]
  pest or weed control at 125 g/ha: 55%
Giant foxtail [5]; 16 g ai/ha, postemergence, 0 is no effect, 100 is complete control, read-out: Plant response rating (0 to 100), Foxtail, Giant
  pest or weed control at 16 g/ha: 5%
Giant foxtail [5]; 125 g ai/ha, postemergence, visual rating, scale 0 to 100 (0 no effect, 100 complete control), read-out: Plant response rating, Foxtail, Giant
  pest or weed control at 125 g/ha: 50%
Giant foxtail [5]; Postemergence, 62 g ai/ha, scale 0 to 100 (0 no effect, 100 complete control), read-out: Plant response rating, Foxtail, Giant
  pest or weed control at 62 g/ha: 10%
Johnsongrass [6]; 16 g ai/ha, postemergence, 0 is no effect, 100 is complete control, read-out: Plant response rating (0 to 100), Johnsongrass
  pest or weed control at 16 g/ha: 5%
Johnsongrass [6]; 125 g ai/ha, postemergence, visual rating, scale 0 to 100 (0 no effect, 100 complete control), read-out: Plant response rating, Johnsongrass
  pest or weed control at 125 g/ha: 10%
Johnsongrass [6]; Postemergence, 62 g ai/ha, scale 0 to 100 (0 no effect, 100 complete control), read-out: Plant response rating, Johnsongrass
  pest or weed control at 62 g/ha: 5%
Yellow nutsedge [7]; 16 g ai/ha, postemergence, 0 is no effect, 100 is complete control, read-out: Plant response rating (0 to 100), Nutsedge, Yellow
  pest or weed control at 16 g/ha: 0%
Yellow nutsedge [7]; 125 g ai/ha, postemergence, visual rating, scale 0 to 100 (0 no effect, 100 complete control), read-out: Plant response rating, Nutsedge, Yellow
  pest or weed control at 125 g/ha: 10%
Yellow nutsedge [7]; Postemergence, 62 g ai/ha, scale 0 to 100 (0 no effect, 100 complete control), read-out: Plant response rating, Nutsedge, Yellow
  pest or weed control at 62 g/ha: 5%
soybean; 16 g ai/ha, postemergence, 0 is no effect, 100 is complete control
  Soybean plant response rating (crop injury, 0-100 scale) at 16 g/ha: 40%
soybean; 125 g ai/ha, postemergence, visual rating, scale 0 to 100 (0 no effect, 100 complete control), read-out: Plant response rating, Soybean
  Soybean plant response rating (crop injury, 0-100 scale) at 125 g/ha: 95%
soybean; Postemergence, 62 g ai/ha, scale 0 to 100 (0 no effect, 100 complete control)
  Soybean plant response rating (crop injury, 0-100 scale) at 62 g/ha: 65%
waterhemp; 16 g ai/ha, postemergence, 0 is no effect, 100 is complete control, read-out: Plant response rating (0 to 100), Waterhemp
  pest or weed control at 16 g/ha: 60%
waterhemp; 125 g ai/ha, postemergence, visual rating, scale 0 to 100 (0 no effect, 100 complete control), read-out: Plant response rating, Waterhemp
  pest or weed control at 125 g/ha: 85%
waterhemp; Postemergence, 62 g ai/ha, scale 0 to 100 (0 no effect, 100 complete control), read-out: Plant response rating, Waterhemp
  pest or weed control at 62 g/ha: 75%
chickweed; 16 g ai/ha, postemergence, 0 is no effect, 100 is complete control, read-out: Plant response rating (0 to 100), Chickweed
  pest or weed control at 16 g/ha: 5%
chickweed; 125 g ai/ha, postemergence, visual rating, scale 0 to 100 (0 no effect, 100 complete control), read-out: Plant response rating, Chickweed
  pest or weed control at 125 g/ha: 55%
chickweed; Postemergence, 62 g ai/ha, scale 0 to 100 (0 no effect, 100 complete control), read-out: Plant response rating, Chickweed
  pest or weed control at 62 g/ha: 50%

From patent US9695155B2, “Herbicidal substituted pyrimidinyloxy benzene compounds” (E. I. DU PONT DE NEMOURS AND COMPANY, priority 2013, dated 2017)
